Assays:
[1] = Human studies with pea and orange fiber snack prototypes: fecal N-methylserotonin and serotonin levels; type: in vivo
Method: Human studies with pea and orange fiber snack prototypes. Two separate open-label, single group assignment studies were performed involving members of the Missouri Adolescent Female Twin Study (MOAFTS) cohort who were age 31-45 years at the time of enrollment. The first study with the pea fiber snack was performed between April and August 2017, while the second study with the orange fiber snack was conducted between August and December 2017. All participants provided written informed consent and the studies were approved by the Washington University Institutional Review Board (IRB ID #201611122). (ClinicalTrials.gov NCT03078283).
The design of the two studies were identical except for the fiber snack supplement used and the number of participants in each study. Individuals who were pregnant or trying to get pregnant, had inflammatory bowel disease, gastrointestinal cancer, hepatitis, HIV, renal failure, or allergies to dairy, eggs, fish, crustacean shellfish, tree nuts, sesame seeds, peanuts, wheat, gluten, soybeans, celery, or mustard were excluded from the study. In Study 1, four twin pairs were concordant for obesity (BMI>30 kg/m2) while five pairs were discordant with one member being obese and the other non-obese (n=18 participants, […] (mean±SD); Table S8B). Study 2 involved 24 participants: 12 dizygotic twin pairs [37±2.9 years (mean±SD)], nine of whom had participated in the pea fiber study; for these nine pairs, the interval between cessation of pea fiber snack consumption and initiation of orange fiber consumption ranged from 50 to 106 days [84+26 days (mean±SD)]. Participants consumed their normal, unrestricted diet for the first two weeks of the study (pre-intervention phase). At the beginning of week three, they supplemented their diets with one 35 g fiber snack serving a day for one week, then two 35 g snack servings a day the following week, and thereafter, three 35 g snacks per day for four weeks (weeks 5-8) at breakfast, lunch and dinner. No attempt was made to adjust the diets of participants other than supplementation with the fiber snack. Snack prototypes were manufactured by Mondeldz International, Inc. (see Table S8A for their composition), which participants received in weekly shipments from the study center. The pea fiber snacks were in the form of rotary biscuits (6.7 g total fiber/35 g snack) or extruded bars (8.1 g fiber/35 g snack) with participants having the option to alternate between them. The orange fiber snacks were all in the form of extruded bars (10.2 g total fiber/35 g snack). Compliance was monitored throughout by the study coordinator through weekly phone calls. The primary outcomes for each study were the effects of the respective prototypes on gut microbial community structure and function.
Fecal samples were collected by participants in small medically approved collection containers. Each fecal sample was frozen immediately at −20° C. and temporarily stored in dedicated freezers provided to participants at the beginning of the study. Within 12-48 hours after collection, all samples were shipped, via overnight delivery, in an insulated container containing frozen gel packs, to a biospecimen repository located in Washington University in St. Louis and overseen by one of the authors (A.C.H.). Once received, samples were stored at −80° C. until processing for LC-QqQ-MS analysis of N-methylserotonin levels and culture-independent characterization of ASV and CAZyme gene abundances.
Measurement of fecal N-methylserotonin levels—Each fecal sample was homogenized with a porcelain mortar (4 L) and pestle while submerged in liquid nitrogen; multiple 500 mg aliquots of the pulverized frozen material were stored at −80° C. N-methylserotonin was quantified using the same protocol that was employed for mouse fecal samples (as described herein elsewhere).
N-methylserotonin levels and microbiome CAZyme gene abundances in humans consuming fiber snack prototypes. […]

5-HT2A receptor = target: T1, 5-HT2A receptor (Rattus norvegicus, UniProt P14842); conditions: cultured rat muscle, agonist activity on the 5-HT2A receptor; cited from earlier work
T1 construct: increase glucose uptake in cultured rat muscle via its agonist activity on the 5-HT2A receptor; host or cells: cultured rat muscle
T1 sequence (P14842 whole entry): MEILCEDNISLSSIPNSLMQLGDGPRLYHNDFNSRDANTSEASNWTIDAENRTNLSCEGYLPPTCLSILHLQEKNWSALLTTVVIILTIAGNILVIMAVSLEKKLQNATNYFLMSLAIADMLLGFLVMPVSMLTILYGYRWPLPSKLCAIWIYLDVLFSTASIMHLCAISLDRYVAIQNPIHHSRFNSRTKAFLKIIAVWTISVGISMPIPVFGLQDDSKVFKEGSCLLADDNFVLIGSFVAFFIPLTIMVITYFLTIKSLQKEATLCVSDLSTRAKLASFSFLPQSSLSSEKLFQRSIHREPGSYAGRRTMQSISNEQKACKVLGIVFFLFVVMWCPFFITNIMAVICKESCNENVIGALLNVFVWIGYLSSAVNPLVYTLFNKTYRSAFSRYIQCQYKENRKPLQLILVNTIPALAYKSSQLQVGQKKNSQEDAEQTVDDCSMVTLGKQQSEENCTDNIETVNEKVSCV

CNCCc1c[nH]c2ccc(O)cc12 [N-methylserotonin]
fecal samples in which N-methylserotonin was undetectable ([1]; 36 samples, pea fiber snack prototype, weeks 3 and 5): 87% | fecal samples in which N-methylserotonin was present ([1]; 48 samples, participants consuming the orange fiber snack prototype): 98% | fecal N-methylserotonin concentration ([1]; orange fiber snacks at maximal dose (3 snacks/day), mean±SD): 72.5 ± 38.4 µM | fecal N-methylserotonin (undetectable) ([1]; pea fiber snack prototype, 87% of 36 samples): < 0.05 µg/g | glucose uptake (5-HT2A receptor): able to increase glucose uptake

Reference: US20250345370A1, “MICROBIAL LIBERATION OF N-METHYLSEROTONIN FROM ORANGE FIBER” (Washington University, priority 2022, published 2025)
